# US6403357B1, “Thermostable D-hydantoinase and the application thereof” (National Science Council, priority 2000, dated 2002)
# Like-named read-outs stand apart in the source and are kept apart here.
# B1: D-hydantoinase: thermostable D-hydantoinase from Bacillus circulans, amino acid sequence SEQ ID NO:1, 461 amino acids, expressed in E. coli (protein)
# chain: MKKWIRNGTVVTASDTYQADVLIDGEKVVAIGSDLQATDAEVIDATGYYLLPGGIDPHTHLDMPFGGTVTSDNFFTGTKAAAFGGTTSIVDFCLTSKGESLHSAIATWHEKARGKAVIDYGFHLMVSDANDHVLEELESVVNNEGITSLKVFMAYKNVLMADDETLFKTLIRAKELGALVQVHAENGDVLDYLTKQALAEGNTDPIYHAYTRPPEAEGEATGRAIALTALADAQLYVVHVSCADAVRRIAEAREKGWNVYGETCPQYLVLDITALEKPDFEGAKYVWSPPLREKWNQDVLWSALKNGILQTVGSDHCPFNFSGQKELGRRDFTKIPNGGPIIEDRMTILFSEGVRKGKISLNQFVDITSTKVAKLFGMFPQKGTIAVGSDADIVLFDPTVQRTISVETHHMNVDYNPFEGMQVHGDVISVLSRGAFVVRNKQFVGHAGAGRYVKRSTFARP
# Tests used:
# Format in all cases: biochemical, Bacillus circulans
# D-hydantoinase [1] = assay: Substrate selection of D-hydantoinase; settings: substrate 10 mM; for Conversion to the corresponding N-carbamoyl amino acid / Specific activity: 50° C., 10 min; for Relative activity: percentage based on activity for dihydrouracil
# Procedure: 10 mM Dihydrouracil, hydantoin, D,L-p-HPH, 5-[2-(methylthio)ethyl]hydantoin, and D,L-homophenylalanyl-hydantoin were used as substrates, respectively. The vector pQE-bcidht in E. coli NovaBlue, crude extracts thereof or the purified D-hydantoinase of the present invention was reacted with each substrate at 50° C. for 10 min. Enzyme activity was then measured.
# D-hydantoinase [2] = assay: Effects of chelator on D-hydantoinase activity; settings: chelator 10 μM, incubation for 10 hours
# Procedure: The vector pQE-bcidht in E. coli NovaBlue, crude extracts thereof or the purified D-hydantoinase of the present invention was mixed with hydrophilic chelator, EDTA, and hydrophobic chelator, 2,6-dipicolinic acid, at 10 μM concentration, respectively. The mixture was incubated for 0-12 hours, and the enzyme activity was measured.
# D-hydantoinase [3] = assay: Effects of metal ions on D-hydantoinase activity
# D-hydantoinase [4] = assay: Effects of H2O2, NaCl and NH4Cl on D-hydantoinase activity; settings: 10 min; for Effect on enzyme activity: concentration as high as 0.8 M, room temperature
# Procedure: The vector pQE-bcidht in E. coli NovaBlue, crude extracts thereof or the purified D-hydantoinase of the present invention was incubated at 25° C. for 10 min. Afterwards, the catalase was added to the solution to remove residual H2O2, and then the enzyme activity was measured. In addition, various concentrations of NaCl and NH4Cl were added to the solution containing D-hydantoinase. The solution was incubated at room temperature for 10 min, and the enzyme activity was measured.
# D-hydantoinase [5] = assay: Reaction pH of D-hydantoinase; settings: 10 mM D,L-p-HPH, 50° C., 10 min
# Procedure: The substrate D,L-p-HPH was dissolved in various pH buffers at the final concentration of 10 mM. The vector pQE-bcidht in E. coli NovaBlue, crude extracts thereof or the purified D-hydantoinase of the present invention, were added to each buffer containing substrate, and incubated at 50° C. for 10 min. The specific activity of the enzyme was then measured.
# D-hydantoinase [6] = assay: Reaction temperature of D-hydantoinase; settings: 500 μM Mn2+, 10 mM D,L-p-HPH, pH 8.0, 10 min
# Procedure: The vector pQE-bcidht in E. coli NovaBlue, crude extracts thereof or the purified D-hydantoinase of the present invention (containing 500 μM Mn^2+), was added to 10 mM substrate of D,L-p-HPH (dissolved in 50 mM Tris-HCl (pH 8.0)). The mixture was incubated at various temperature (30-90° C.) for 10 min. The specific activity of the enzyme was then measured.
# D-hydantoinase [7] = assay: Thermostability of D-hydantoinase; settings: after 60 days incubation at 50° C.
# Procedure: The vector pQE-bcidht in E. coli NovaBlue, crude extracts thereof or the purified D-hydantoinase of the present invention (47 unit/mg; containing 500 μM Mn^2+), was incubated at 50° C. in a thermostat water bath. The specific activity of the enzyme was measured at various time intervals.
# D-hydantoinase [8] = assay: Conditions of converting D,L-p-HPH by D-hydantoinase; settings: enzyme pre-mixed with Mn2+ and incubated in an ice solution for 4 days
# Procedure: The reaction pH of D-hydantoinase is between 5 and 10. […] The substrate solubility and enzyme activity can be elevated by grinding D,L-p-HPH to powder form, dissolving the powdered substrate in 50 mM Tris-HCl (pH 8.0), followed by stirring the solution at room temperature for 2 hours. In addition, A suitable amount of DMSO can also enhance the solubility of substrate D,L-p-HPH, and elevate the conversion efficiency from D,L-p-HPH to D-p-HPG by the D-hydantoinase of the present invention.
# [9] = ion 500 μM, 15 min at room temperature, 10 mM D,L-p-HPH in 50 mM Tris-HCl pH 8.0
# [10] = ion 500 μM, percentage based on activity without adding ions
molecule,measurement,setting,value
"O=C1NC(=O)C(CCc2ccccc2)N1 (racemic) [D,L-Homophenylalanyl-hydantoin, D,L-homophenylalanyl-hydantoin]",Conversion to the corresponding N-carbamoyl amino acid,D-hydantoinase [1],capable of converting
same,Specific activity,D-hydantoinase [1],45.64 unit/mg
same,Relative activity,D-hydantoinase [1],84%
"O=C1NC(=O)C(c2ccc(O)cc2)N1 (racemic) [D,L-p-Hydroxyphenylhydantoin, D,L-p-hydroxyphenylhydantoin]",Conversion to the corresponding N-carbamoyl amino acid,D-hydantoinase [1],capable of converting
same,Specific activity,D-hydantoinase [1],47.43 unit/mg
same,Relative activity,D-hydantoinase [1],87%
"O=C(O)c1cccc(C(=O)O)n1 [2,6-dipicolinic acid]",Retained enzyme activity,D-hydantoinase [2],40%
"CSCCC1NC(=O)NC1=O (stereo not shown) [5-[2-(Methylthio)ethyl]-hydantoin, 5-[2-(methylthio)ethyl]hydantoin]",Conversion to the corresponding N-carbamoyl amino acid,D-hydantoinase [1],capable of converting
same,Specific activity,D-hydantoinase [1],21.48 unit/mg
same,Relative activity,D-hydantoinase [1],40%
[Ca+2].[Cl-].[Cl-] [CaCl2],Specific activity,D-hydantoinase [3]; [9],2.53 unit/mg
same,Relative activity,D-hydantoinase [3]; [10],88%
[Cl-].[Cl-].[Co+2] [CoCl2],Effect on enzyme activity,D-hydantoinase [3],enhance the enzyme activity
same,"Increase of enzyme activity, times original activity",D-hydantoinase [3],4.5 times
same,Relative activity,D-hydantoinase [3],252%
same,Specific activity,D-hydantoinase [3]; pH 8,7.25 unit/mg
[Cl][Cu][Cl] [CuCl2],Inhibition of D-hydantoinase activity,D-hydantoinase [3]; ion 500 μM,22%
same,Specific activity,D-hydantoinase [3]; [9],2.26 unit/mg
same,Relative activity,D-hydantoinase [3]; [10],78%
O=C1CCNC(=O)N1 [Dihydrouracil],Specific activity,D-hydantoinase [1],54.29 unit/mg
same,Specific activity,D-hydantoinase [1]; listed as dihydrouracil,54 unit/mg
same,Relative activity,D-hydantoinase [1],100%
O=C(O)CN(CCN(CC(=O)O)CC(=O)O)CC(=O)O [EDTA],Retained enzyme activity,D-hydantoinase [2],70%
[Cl][Fe]([Cl])[Cl] [FeCl3],Specific activity,D-hydantoinase [3]; [9],2.52 unit/mg
same,Relative activity,D-hydantoinase [3]; [10],87.5%
O=S(=O)([O-])[O-].[Fe+2] [FeSO2],Specific activity,D-hydantoinase [3]; [9],2.52 unit/mg
same,Relative activity,D-hydantoinase [3]; [10],87.5%
OO [H2O2],Retained enzyme activity,"D-hydantoinase [4]; 0.8 M H2O2, 25° C.",85%
O=C1CNC(=O)N1 [Hydantoin],Conversion to the corresponding N-carbamoyl amino acid,D-hydantoinase [1],capable of converting
same,Specific activity,D-hydantoinase [1],41.43 unit/mg
same,Relative activity,D-hydantoinase [1],76%
[Cl-].[Cl-].[Mg+2] [MgCl2],Specific activity,D-hydantoinase [3]; [9],2.62 unit/mg
same,Relative activity,D-hydantoinase [3]; [10],91%
O=S(=O)([O-])[O-].[Mg+2] [MgSO4],Specific activity,D-hydantoinase [3]; [9],2.69 unit/mg
same,Relative activity,D-hydantoinase [3]; [10],94%
[Cl][Mn][Cl] [MnCl2],"Increase of enzyme activity, times original activity",D-hydantoinase [3]; 500 μM Mn2+,7.7 times
same,Effect on enzyme activity,D-hydantoinase [3]; divalent metal ion added,enhance the enzyme activity
same,Specific activity,D-hydantoinase [3]; [9],22.25 unit/mg
same,Relative activity,D-hydantoinase [3]; [10],773%
Cl.N [NH4Cl],Effect on enzyme activity,D-hydantoinase [4],not affected
[Cl-].[Na+] [NaCl],Effect on enzyme activity,D-hydantoinase [4],not affected
O=S(=O)([O-])[O-].[Ni+2] [NiSO4],"Increase of enzyme activity, times original activity",D-hydantoinase [3]; 100 μM Ni2+,1.3 times
same,Effect on enzyme activity,D-hydantoinase [3]; divalent metal ion added,enhance the enzyme activity
same,Specific activity,D-hydantoinase [3]; [9],4.00 unit/mg
same,Relative activity,D-hydantoinase [3]; [10],139%
O=S(=O)([O-])[O-].[Zn+2] [ZnSO4],Inhibition of D-hydantoinase activity,D-hydantoinase [3]; ion 500 μM,50%
same,Specific activity,D-hydantoinase [3]; [9],1.44 unit/mg
same,Relative activity,D-hydantoinase [3]; [10],50%
B1,Enzyme activity,D-hydantoinase [5]; pH 4.0,loses its entire activity
same,Highest specific activity,D-hydantoinase [5]; pH 8.5,3.36 unit/mg
same,Specific activity,D-hydantoinase [6]; 30° C.,9.0 unit/mg
same,Highest specific activity,D-hydantoinase [6]; 60° C.,28.32 unit/mg
same,Specific activity,D-hydantoinase [6]; 90° C.,4.26 unit/mg
same,Activity after long incubation,D-hydantoinase [7],retains activity
same,"Maximum specific activity for catalysis of D,L-p-HPH",D-hydantoinase [8],47 unit/mg
